Laboratory results from ChEMBL document CHEMBL5390229, “Inhibiting HCMV pUL89-C Endonuclease with Metal-Binding Compounds” (J Med Chem, 2023).

Tests used:
[1] = biological target: T1, Tripartite terminase subunit 3 (Human betaherpesvirus 5, UniProt P16732); experiment: Inhibition of Human Cytomegalovirus C-terminal UL89 […] using (5-tcggtgcgggcctcttcgctattacgccagctggcgaaagggggatgtgctgcaaggcga as a substrate preincubated for 15 mins followed by substrate addition and measured after 30 mins by plate reader endonuclease assay
T1 sequence (P16732 whole entry): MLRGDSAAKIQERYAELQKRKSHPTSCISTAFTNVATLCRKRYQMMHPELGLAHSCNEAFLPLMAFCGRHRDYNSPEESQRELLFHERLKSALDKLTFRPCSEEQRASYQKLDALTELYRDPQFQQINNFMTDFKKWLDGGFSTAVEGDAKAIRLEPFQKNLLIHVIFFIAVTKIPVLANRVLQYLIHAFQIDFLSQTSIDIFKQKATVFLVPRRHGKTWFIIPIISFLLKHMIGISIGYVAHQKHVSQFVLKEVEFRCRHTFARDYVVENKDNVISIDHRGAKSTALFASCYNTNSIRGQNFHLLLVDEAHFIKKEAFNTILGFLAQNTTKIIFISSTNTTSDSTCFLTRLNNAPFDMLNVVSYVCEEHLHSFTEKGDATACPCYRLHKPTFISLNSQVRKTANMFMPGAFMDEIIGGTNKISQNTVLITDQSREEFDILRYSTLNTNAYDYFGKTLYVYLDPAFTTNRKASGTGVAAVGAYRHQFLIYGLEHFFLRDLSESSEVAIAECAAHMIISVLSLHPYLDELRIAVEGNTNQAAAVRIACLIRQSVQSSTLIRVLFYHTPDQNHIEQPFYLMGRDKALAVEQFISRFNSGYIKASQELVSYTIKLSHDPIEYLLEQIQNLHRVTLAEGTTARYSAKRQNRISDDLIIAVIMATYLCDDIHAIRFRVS

[2] = tested on: Cytomegalovirus; experiment: Antiviral activity against Human Cytomegalovirus; settings: Human betaherpesvirus 5
[3] = tested on: Cytomegalovirus; experiment: Antiviral activity against Human Cytomegalovirus assessed as inhibition of viral growth at 10 uM relative to control; type: functional; settings: Human betaherpesvirus 5
[4] = Permeability of the compound at pH 7.4 by PAMPA method; type: ADME; settings: for Papp: read-out: permeability
[5] = biological target: T1, Tripartite terminase subunit 3; experiment: Inhibition of human Cytomegalovirus C-terminal UL89
[6] = biological target: Human immunodeficiency virus type 1 integrase (Human immunodeficiency virus 1, UniProt Q7ZJM1, G140S/Q148K)
Sequence of Human immunodeficiency virus type 1 integrase (Human immunodeficiency virus 1, UniProt Q7ZJM1, G140S/Q148K) (Q7ZJM1 entry or part of it G140S/Q148K): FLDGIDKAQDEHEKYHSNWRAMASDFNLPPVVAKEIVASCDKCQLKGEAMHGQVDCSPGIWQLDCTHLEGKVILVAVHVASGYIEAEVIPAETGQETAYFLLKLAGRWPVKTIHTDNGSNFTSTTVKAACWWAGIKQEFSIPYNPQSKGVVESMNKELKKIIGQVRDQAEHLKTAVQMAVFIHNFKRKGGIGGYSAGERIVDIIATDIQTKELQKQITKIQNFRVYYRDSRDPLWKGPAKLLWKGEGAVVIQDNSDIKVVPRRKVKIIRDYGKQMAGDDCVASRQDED

[7] = Cytotoxicity against human HFF-1 cells assessed as induction of cell death incubated for 24 hrs by MTT assay; type: toxicity, cell-based
[8] = biological target: T2, Tripartite terminase subunit 3 (Human betaherpesvirus 5) (UniProt P16732); experiment: Inhibition of Human Cytomegalovirus C-terminal UL89 […] using (5-tcggtgcgggcctcttcgctattacgccagctggcgaaagggggatgtgctgcaaggcga as a substrate preincubated for 15 mins followed by substrate addition at 20 uM and measured after 30 mins by plate reader endonuclease assay relative to control; settings: time 45.0 min
T2 sequence (whole entry): T1 sequence (P16732 whole entry)

[9] = biological target: Human immunodeficiency virus type 1 integrase (Human immunodeficiency virus 1, UniProt Q7ZJM1, R263K); experiment: Inhibition of HIV-1 integrase DTG-resistant R263K mutant
Sequence of Human immunodeficiency virus type 1 integrase (Human immunodeficiency virus 1, UniProt Q7ZJM1, R263K) (Q7ZJM1 entry or part of it R263K): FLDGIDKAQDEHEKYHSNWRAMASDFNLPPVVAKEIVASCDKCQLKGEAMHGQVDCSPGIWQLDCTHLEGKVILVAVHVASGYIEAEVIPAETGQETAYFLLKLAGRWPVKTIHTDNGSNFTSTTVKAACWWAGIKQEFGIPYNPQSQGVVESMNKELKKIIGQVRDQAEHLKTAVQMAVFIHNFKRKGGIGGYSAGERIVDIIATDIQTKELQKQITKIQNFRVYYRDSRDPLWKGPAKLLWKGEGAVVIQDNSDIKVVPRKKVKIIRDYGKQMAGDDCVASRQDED

[10] = Cytotoxicity against human HFF cells assessed as reduction in cell viability incubated for 72 hrs by MTT assay; type: toxicity, cell-based
[11] = tested on: Human immunodeficiency virus 1; experiment: Antiviral activity against HIV-1 assessed as viral growth inhibition; type: functional, organism-based
[12] = biological target: T3, Human immunodeficiency virus type 1 reverse transcriptase (Human immunodeficiency virus 1, UniProt Q72547); experiment: Inhibition of HIV-1 reverse transcriptase associated RNA-dependent DNA polymerase
[13] = biological target: T3, Human immunodeficiency virus type 1 reverse transcriptase; experiment: Inhibition of HIV-1 RNase H polymerase activity
[14] = tested on: Human immunodeficiency virus 1; experiment: Antiviral activity against HIV-1 harboring integrase L74M mutant; type: functional, organism-based
[15] = tested on: HFF; experiment: Cytotoxicity against human HFF cells assessed as reduction in cell viability; type: functional
[16] = biological target: Integrase (Human immunodeficiency virus 1, UniProt Q76353, Q148K); experiment: Inhibition of HIV-1 integrase Q148K mutant
Sequence of Integrase (Q76353 entry or part of it Q148K): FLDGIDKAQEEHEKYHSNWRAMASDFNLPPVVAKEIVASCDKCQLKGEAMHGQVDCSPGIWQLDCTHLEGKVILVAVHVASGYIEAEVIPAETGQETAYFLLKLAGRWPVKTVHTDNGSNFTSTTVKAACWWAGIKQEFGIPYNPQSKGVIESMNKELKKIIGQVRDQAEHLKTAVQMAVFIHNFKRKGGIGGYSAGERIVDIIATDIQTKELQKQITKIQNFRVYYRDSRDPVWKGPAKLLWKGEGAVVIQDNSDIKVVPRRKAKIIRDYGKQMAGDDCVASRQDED

[17] = biological target: T3, Human immunodeficiency virus type 1 reverse transcriptase; experiment: Inhibition of HIV-1 reverse transcriptase
[18] = Selectivity index, ratio of CC50 for human HFF cells to EC50 for Human cytomegalovirus; type: toxicity; settings: read-out: Ratio CC50/EC50
[19] = biological target: Hepatitis C virus NS5B RNA-dependent RNA polymerase (Hepatitis C virus, UniProt Q8JXU8); experiment: Inhibition of Hepatitis C virus NS5B polymerase; parameters: species or system Hepacivirus hominis
Sequence of Hepatitis C virus NS5B RNA-dependent RNA polymerase (Q8JXU8 whole entry): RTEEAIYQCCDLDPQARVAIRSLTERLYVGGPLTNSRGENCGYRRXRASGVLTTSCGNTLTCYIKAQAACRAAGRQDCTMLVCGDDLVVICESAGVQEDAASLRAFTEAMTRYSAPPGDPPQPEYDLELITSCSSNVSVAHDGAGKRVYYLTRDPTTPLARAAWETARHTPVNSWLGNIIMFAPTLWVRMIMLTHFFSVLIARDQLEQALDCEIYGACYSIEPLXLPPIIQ

Row | SMILES | IC50 [1] | EC50 [2] | inhibition at 10 µM [3] | also measured
1 | O=c1cc(Nc2cccc(-c3ccc(Cl)cc3)c2)[nH]c(=O)n1O | > 20000 nM | > 20000 nM |  | 
2 | O=c1[nH]c2cc(-c3ccccc3)ccc2c(=O)n1O | 6400 nM | 13000 nM | 91% | Papp [4]: 2 ×10⁻⁶ cm/s
3 | Cn1c(Nc2ccc(-c3ccc(C(F)(F)F)cc3)cc2)cc(=O)n(O)c1=O | > 20000 nM |  |  | 
4 | O=C(O)c1cn(Cc2ccc(F)cc2)cc(O)c1=O |  | 10000 nM | 39% | 
5 | O=C1c2ccccc2C(c2ccccc2F)C(=O)N1O (centres undefined) | 1400 nM | 6200 nM | 68% | Papp [4]: 3 ×10⁻⁶ cm/s
6 | O=c1cc(Nc2ccc(-c3ccc(Cl)cc3)cc2)[nH]c(=O)n1O | 9300 nM | > 20000 nM |  | 
7 | O=C(O)C(=O)CC(=O)c1ccc(N2CCCCC2)cc1 |  |  |  | IC50 [5]: 4500 nM
8 | NC(=O)c1cn(Cc2ccc(F)cc2)cc(O)c1=O | > 50000 nM |  | 50% | 
9 | O=C(NCc1ccccc1)c1nc(-c2cccs2)nc(O)c1O |  |  |  | IC50 [6]: 2600 nM
10 | O=c1[nH]c2sc(-c3ccccc3)cc2c(=O)n1O | 1600 nM |  | 2.7% | Papp [4]: 0.5 ×10⁻⁶ cm/s
11 | COc1ccc(-c2cccc(Nc3cc(=O)n(O)c(=O)[nH]3)c2)cc1 | 14000 nM | > 20000 nM |  | 
12 | O=c1[nH]c2cc(-c3ccccc3)sc2c(=O)n1O | 600 nM | 13000 nM | 59% | CC50 at 24 h [7]: > 50000 nM; permeability [4]: 1.4 10^-6 cm/s
13 | O=c1[nH]c2sc3c(c2c(=O)n1O)CCN(Cc1ccccc1)C3 | 1100 nM | 15000 nM | 59% | CC50 at 24 h [7]: > 50000 nM; Papp [4]: 0.2 ×10⁻⁶ cm/s
14 | COc1cccc(OC)c1-c1cccc(Nc2cc(=O)n(O)c(=O)[nH]2)c1 | 14000 nM | 15000 nM |  | 
15 | Cc1ccc(CNC(=O)c2nc(-c3ccccc3)c3cccnc3c2O)cc1 | 2800 nM |  |  | 
16 | O=C(O)c1cn(C2CC2)cc(O)c1=O | > 25000 nM |  | 2% | 
17 | O=C(NCc1ccc(F)cc1F)c1cn(Cc2ccc(F)cc2)ccc1=O |  | 6600 nM |  | inhibition [8]: 5%
18 | O=C(O)c1cn(-c2ccccc2)cc(O)c1=O | > 25000 nM |  | 8% | 
19 | CCOC(=O)c1cn(Cc2ccc(F)cc2)cc(O)c1=O |  |  | 40% | 
20 | O=C(O)c1cn(Cc2ccccc2)cc(O)c1=O | > 25000 nM |  | 38% | 
21 | Cc1ccc(-c2ccc(Nc3cc(=O)n(O)c(=O)n3C)cc2)cc1 | 2200 nM | 1200 nM |  | 
22 | O=c1[nH]c2c3c(sc2c(=O)n1O)CCCC3 | 940 nM |  | -4.5% | Papp [4]: 1 ×10⁻⁶ cm/s
23 | O=c1c2cc(Cc3ccccc3)ccc2oc2ccc(O)c(O)c12 |  |  |  | IC50 [9]: 600 nM
24 | CN(Cc1ccc(F)cc1)C(=O)CC(=O)C(=O)O |  |  |  | IC50 [5]: 50000 nM
25 | O=C(NCc1ccc(F)cc1)c1ncc2cccnc2c1O |  |  |  | IC50 [9]: 33 nM
26 | O=C(c1cc(Cc2ccccc2)cc(CN2CCCS2(=O)=O)c1)c1ncc2cccnc2c1O |  |  |  | IC50 [9]: 10 nM

Row | SMILES | IC50 [1] | EC50 [2] | inhibition at 10 µM [3] | also measured
27 | O=c1[nH]c2sc(-c3ccc(Cl)cc3)cc2c(=O)n1O | 300 nM | 7600 nM | 33% | Papp [4]: 0.5 ×10⁻⁶ cm/s
28 | O=c1cc(Nc2ccc(-c3ccc(O)cc3)cc2)[nH]c(=O)n1O | 1100 nM | > 20000 nM |  | 
29 | COc1ccc(-c2ccc(Nc3cc(=O)n(O)c(=O)n3C)cc2)cc1 | > 20000 nM |  |  | 
30 | O=c1[nH]c2c3c(sc2c(=O)n1O)CCC3 | 220 nM | 220 nM | -32% | Papp [4]: 0.3 ×10⁻⁶ cm/s
31 | CC(C)c1cn(COCc2ccccc2)c(=O)n(O)c1=O |  |  |  | CC50 at 72 h [10]: > 20000 nM; EC50 [11]: 8 nM; IC50 [12]: 5400 nM; IC50 [13]: 2500 nM
32 | O=c1[nH]c2sc3c(c2c(=O)n1O)CCNC3 | 680 nM |  | 26% | Papp [4]: 0.1 ×10⁻⁶ cm/s
33 | CC(C)c1cn(COCc2ccccc2)c(=O)[nH]c1=O |  |  |  | EC50 [14]: 13 nM; CC50 [15]: > 20000 nM; IC50 [16]: > 333000 nM; IC50 [17]: 40 nM
34 | CCc1ccccc1Sc1cc(=O)n(O)c(=O)n1C |  |  |  | CC50 at 72 h [10]: 20000 nM
35 | CCn1cc(O)c(=O)c(C(=O)O)c1 | > 25000 nM |  | 14% | 
36 | O=c1[nH]c2sc3c(c2c(=O)n1O)CCCC3 | 790 nM |  | -3% | permeability [4]: 1.1 10^-6 cm/s
37 | O=c1cc(Nc2ccc(-c3cccc(O)c3)cc2)[nH]c(=O)n1O | 2900 nM | > 20000 nM |  | 
38 | O=c1[nH]c2ccsc2c(=O)n1O | 100 nM |  | -11% | Papp [4]: 0.1 ×10⁻⁶ cm/s
39 | O=C(NCCc1ccc(F)cc1F)c1cn(Cc2ccc(F)cc2)cc(O)c1=O |  | 400 nM |  | selectivity ratio [18]: > 40; CC50 [15]: > 50000 nM; inhibition [8]: 10%
40 | COc1cn(Cc2ccc(F)cc2)cc(C(=O)NCc2ccc(F)cc2F)c1=O |  | > 50000 nM |  | inhibition [8]: 6%
41 | O=C(O)c1nc(-c2cccs2)nc(O)c1O |  |  |  | IC50 [19]: 2600 nM
42 | Cn1c(Nc2ccc(-c3cccc(C#N)c3)cc2)cc(=O)n(O)c1=O | 740 nM | 6200 nM |  | 
43 | CCOC(=O)c1cc(=O)c(O)c(C(=O)O)o1 |  |  |  | IC50 [19]: 2250 nM
44 | COc1cccc(-c2ccc(Nc3cc(=O)n(O)c(=O)[nH]3)cc2)c1 | 1200 nM | > 20000 nM |  | 
45 | O=C(O)c1cn(Cc2ccc(F)c(Cl)c2)cc(O)c1=O | 6000 nM | 4000 nM | 53% | selectivity ratio [18]: > 116; CC50 [15]: > 200000 nM
46 | Cn1c(Nc2ccc(-c3ccccc3)cc2)cc(=O)n(O)c1=O | > 20000 nM | > 20000 nM |  | 
47 | O=C(O)c1c[nH]cc(O)c1=O | 14000 nM |  | 13% | 
48 | Cc1ccc(CNC(=O)c2nc(Cl)c3cccnc3c2O)cc1 | 1800 nM |  |  | 
49 | O=C(NCc1ccc(F)cc1F)c1cn(Cc2ccc(F)cc2)cc(O)c1=O |  | 900 nM |  | inhibition [8]: 14%
50 | O=c1[nH]c2sc3c(c2c(=O)n1O)CCC3 | 480 nM |  | 19% | Papp [4]: 0.4 ×10⁻⁶ cm/s
51 | O=c1[nH]c2sccc2c(=O)n1O | 400 nM |  | -0.95% | Papp [4]: 0.1 ×10⁻⁶ cm/s
52 | O=C(O)C(=O)CC(=O)c1cccc(Cc2ccccc2)c1 |  |  |  | IC50 [9]: 10 nM
